# Values quoted from earlier work, collected in patent publication US5766627A, “Multivescular liposomes with controlled release of encapsulated biologically active substances” (priority 1997, dated 1998).
# Columns and labels:
# [1] = tested on: strains of gram negative bacteria; conditions: clinical, background statement
# [2] = free amikacin, background statement
# [3] = tested on: strains of gram positive bacteria; conditions: clinical, background statement
smiles,measurement,setting,value
NCC[C@H](O)C(=O)N[C@@H]1C[C@H](N)[C@@H](O[C@H]2O[C@H](CN)[C@@H](O)[C@H](O)[C@H]2O)[C@H](O)[C@H]1O[C@H]1O[C@H](CO)[C@@H](O)[C@H](N)[C@H]1O [amikacin],activity against gram negative bacteria,[1],clinically significant activity
same,serum half-life,[2],two to three
same,activity against gram positive bacteria,[3],clinically significant activity
